Values of other authors in patent publication US20230332232A1, “COMPOSITIONS AND METHODS FOR DIAGNOSING AND TREATING A DYSTONIA” (Duke University, priority 2020, published 2023).

How the values were obtained:
ΔE Torsin1a = ΔE Torsin1a abnormal punctate pattern; cited from earlier work
[1] = tested on: DYT1 patient-derived fibroblasts; conditions: cited from earlier work

SMILES: O=C(O)CCCc1ccccc1 [PBA, phenylbutyric acid]
- punctate pathology (ΔE Torsin1a): significantly reduced punctate pathology
- indicators of UPR activation [1]: reduces indicators of UPR activation
